Measured values published in ChEMBL document CHEMBL1201862, “PubChem BioAssay data set” (2004).
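Five concentrations, 48 hours, 96-well plates. GI50 is the concentration that inhibits growth by half.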 Activity calls are given as the source filed them. Cut-off read from the data, not from the text of the source: active = GI50 up to about 1.1 µM and inactive = higher. Residues, ends and D or L forms follow the SMILES beside them.

Legend:
Experiment in all cases: inhibition of tumour cell growth, NCI panel, 48 h
[1] = test system: SF-295
[2] = test system: SR
[3] = test system: A549
[4] = test system: MCF7
[5] = test system: CAKI-1
[6] = test system: NCI-H23
[7] = test system: NCI-H226
[8] = test system: SNB-19
[9] = test system: TK-10
[10] = test system: OVCAR-4
[11] = test system: SN12C
[12] = test system: SK-MEL-5
[13] = test system: SK-MEL-2
[14] = test system: MDA-MB-435
[15] = test system: SK-MEL-28
[16] = test system: SF-539
[17] = test system: 786-0
[18] = test system: OVCAR-5
[19] = test system: SF-268
[20] = test system: OVCAR-3

| SMILES | GI50 [1] | GI50 [2] | GI50 [3] | GI50 [4] | GI50 [5] | GI50 [6] | GI50 [7] | GI50 [8] | GI50 [9] | GI50 [10] | GI50 [11] | GI50 [12] | GI50 [13] | GI50 [14] | GI50 [15] | GI50 [16] | GI50 [17] | GI50 [18] | GI50 [19] | GI50 [20] |
| --- | --- | --- | --- | --- | --- | --- | --- | --- | --- | --- | --- | --- | --- | --- | --- | --- | --- | --- | --- | --- |
| CCC(C)C(NC(=O)C1CCCN1)C(=O)NC(C(=O)NCC(=O)NC(CC(N)=O)C(=O)NC(CC(C)C)C(=O)NC(CC(C)C)C(=O)NC(CCCCN)C(N)=O)C(C)C (stereo not given) (H-PIVGNLLK-NH2; configuration not given here) | > 75 µM (inactive) | > 75 µM (inactive) | > 75 µM (inactive) | > 75 µM (inactive) | > 75 µM (inactive) | > 75 µM (inactive) | > 75 µM (inactive) | > 75 µM (inactive) | > 75 µM (inactive) | > 75 µM (inactive) | > 75 µM (inactive) | > 75 µM (inactive) | > 75 µM (inactive) | > 75 µM (inactive) | > 75 µM (inactive) | > 75 µM (inactive) | > 75 µM (inactive) | > 75 µM (inactive) | > 75 µM (inactive) | > 75 µM (inactive) |
| O=C1C[C@@]23CCC4(CC2=CCC[C@H]3O1)OCCO4 | > 100 µM (inactive) | > 100 µM (inactive) | > 100 µM (inactive) | > 100 µM (inactive) | > 100 µM (inactive) | > 100 µM (inactive) | > 100 µM (inactive) | > 100 µM (inactive) | > 100 µM (inactive) | > 100 µM (inactive) | > 100 µM (inactive) | > 100 µM (inactive) | > 100 µM (inactive) | > 100 µM (inactive) | > 100 µM (inactive) | > 100 µM (inactive) | > 100 µM (inactive) | > 100 µM (inactive) | > 100 µM (inactive) | > 100 µM (inactive) |
| CCOC1OC(COC(=O)C(C)(C)C)C(O)CC1n1cc(C)c(=O)[nH]c1=O (stereo not given) | > 100 µM (inactive) | > 100 µM (inactive) | > 100 µM (inactive) | > 100 µM (inactive) | > 100 µM (inactive) | > 100 µM (inactive) | > 100 µM (inactive) | > 100 µM (inactive) | > 100 µM (inactive) | > 100 µM (inactive) | > 100 µM (inactive) | > 100 µM (inactive) | > 100 µM (inactive) | > 100 µM (inactive) | > 100 µM (inactive) | > 100 µM (inactive) | > 100 µM (inactive) | > 100 µM (inactive) | > 100 µM (inactive) | > 100 µM (inactive) |
| CCN(CC)CCNC(=O)c1cc2cc(NC(=O)c3cc4cc([N+](=O)[O-])ccc4[nH]3)ccc2[nH]1 | 27.6 µM (inactive) | 7.29 µM (inactive) | 19.3 µM (inactive) | 2.39 µM (inactive) | > 35.6 µM (inactive) | 8.49 µM (inactive) | 56.2 µM (inactive) | 49.8 µM (inactive) | 14.2 µM (inactive) | > 50.4 µM (inactive) | > 65.2 µM (inactive) | 3.85 µM (inactive) | > 52.6 µM (inactive) | 37.5 µM (inactive) | 25.2 µM (inactive) | 6.43 µM (inactive) | 2.25 µM (inactive) | 69.7 µM (inactive) | 13.6 µM (inactive) | > 40.6 µM (inactive) |
| CCc1ccccc1N1CCN(C(=O)c2cc(OC)c(OC)c(OC)c2)CC1 | 0.0134 µM (active) | 0.0893 µM (active) | 0.0452 µM (active) | 0.0178 µM (active) | < 0.0205 µM (active) | 0.0557 µM (active) | 0.103 µM (active) | 0.067 µM (active) | 0.0248 µM (active) | 1.15 µM (inactive) | 0.184 µM (active) | 0.0154 µM (active) | 0.0247 µM (active) | < 0.01 µM (active) | 0.251 µM (active) | 0.0212 µM (active) | < 0.0149 µM (active) | 4.14 µM (inactive) | 0.114 µM (active) | 0.0143 µM (active) |
| C=CCNc1nc2c(s1)C(=O)c1ccccc1C2=O | 14.8 µM (inactive) | 3.43 µM (inactive) | 6.43 µM (inactive) | 6.25 µM (inactive) | 13.7 µM (inactive) | 4.4 µM (inactive) | 21.2 µM (inactive) | 14.9 µM (inactive) | 19.2 µM (inactive) | 7.87 µM (inactive) | 11.6 µM (inactive) | 1.7 µM (inactive) | 10.9 µM (inactive) | 1.91 µM (inactive) | 9.71 µM (inactive) | 8.11 µM (inactive) | 14.5 µM (inactive) | 21.7 µM (inactive) | 12.4 µM (inactive) | 12.1 µM (inactive) |
| CCOC(=O)c1nc2ccccc2nc1Nc1ccc(OC)cc1 | 19.5 µM (inactive) | > 100 µM (inactive) | 51.2 µM (inactive) | > 100 µM (inactive) | 13.8 µM (inactive) | 54.2 µM (inactive) | 37.5 µM (inactive) | 16.5 µM (inactive) | 25.7 µM (inactive) | 18.5 µM (inactive) | 14.8 µM (inactive) | 30 µM (inactive) | 33.7 µM (inactive) | > 100 µM (inactive) | 54.7 µM (inactive) | 22 µM (inactive) | 27.6 µM (inactive) | 83.8 µM (inactive) | 51.6 µM (inactive) | 19.7 µM (inactive) |
| COc1cc2c3cc1Oc1c(OC)c(OC)cc4c1C(Cc1ccc(O)c(c1)Oc1ccc(cc1)CC3N(C)CC2)CN(C)C4 (stereo not given) | 17.9 µM (inactive) | 6.14 µM (inactive) | 22.5 µM (inactive) | 16.4 µM (inactive) | 20.2 µM (inactive) | 16.9 µM (inactive) | 28.7 µM (inactive) | 24.3 µM (inactive) | 16.1 µM (inactive) | 17.6 µM (inactive) | 15.8 µM (inactive) | 13.5 µM (inactive) | 18.3 µM (inactive) | 11.5 µM (inactive) | 16.8 µM (inactive) | 12.9 µM (inactive) | 10.8 µM (inactive) | 21.5 µM (inactive) | 20.4 µM (inactive) | 15 µM (inactive) |
| Cc1noc(NS(=O)(=O)c2ccc(NC(=O)c3ccc4nc5ccccc5c(Nc5ccc(S(=O)(=O)Nc6onc(C)c6C)cc5)c4c3)cc2)c1C | > 100 µM (inactive) | 42 µM (inactive) | > 100 µM (inactive) | 45.6 µM (inactive) | > 100 µM (inactive) | > 100 µM (inactive) | > 100 µM (inactive) | > 100 µM (inactive) | > 100 µM (inactive) | > 100 µM (inactive) | > 100 µM (inactive) | 49.4 µM (inactive) | > 100 µM (inactive) | > 100 µM (inactive) | > 100 µM (inactive) | > 100 µM (inactive) | 56.8 µM (inactive) | > 100 µM (inactive) | > 100 µM (inactive) | 70.3 µM (inactive) |
| CCC[C@@H](O)C[C@@H]1CCC[C@H](C[C@@H](O)CC)N1C | > 100 µM (inactive) | > 100 µM (inactive) | > 100 µM (inactive) | > 100 µM (inactive) | > 100 µM (inactive) | > 100 µM (inactive) | > 100 µM (inactive) | > 100 µM (inactive) | > 100 µM (inactive) | > 100 µM (inactive) | > 100 µM (inactive) | > 100 µM (inactive) | > 100 µM (inactive) | > 100 µM (inactive) | > 100 µM (inactive) | > 100 µM (inactive) | > 100 µM (inactive) | > 100 µM (inactive) | 17.9 µM (inactive) | > 100 µM (inactive) |
| CCOC(CCNCC(OCC)OCC)OCC | > 10 µM (inactive) | > 10 µM (inactive) | > 10 µM (inactive) | > 10 µM (inactive) | > 10 µM (inactive) | > 10 µM (inactive) | > 10 µM (inactive) | > 10 µM (inactive) | > 10 µM (inactive) | > 10 µM (inactive) | > 10 µM (inactive) | > 10 µM (inactive) | > 10 µM (inactive) | > 10 µM (inactive) | > 10 µM (inactive) | > 10 µM (inactive) | > 10 µM (inactive) | > 10 µM (inactive) | > 10 µM (inactive) | > 10 µM (inactive) |
| COC(=O)C(Cc1ccccc1)NP(=O)(O)OCC1OC(n2ccc(N)nc2=O)C(O)C1O (stereo not given) | > 100 µM (inactive) | 66.1 µM (inactive) | > 100 µM (inactive) | > 100 µM (inactive) | > 100 µM (inactive) | > 100 µM (inactive) | > 100 µM (inactive) | > 100 µM (inactive) | 40.8 µM (inactive) | > 100 µM (inactive) | > 100 µM (inactive) | > 100 µM (inactive) | > 100 µM (inactive) | > 100 µM (inactive) | > 100 µM (inactive) | > 100 µM (inactive) | > 100 µM (inactive) | > 100 µM (inactive) | > 100 µM (inactive) | > 100 µM (inactive) |
| CCOC(=O)C(C(=S)SC)c1nn2c(=O)cc(C)nc2s1 (stereo not given) | 20.3 µM (inactive) | 15.7 µM (inactive) | 19.5 µM (inactive) | 17.1 µM (inactive) | 19.9 µM (inactive) | 20.6 µM (inactive) | 17.9 µM (inactive) | 21.3 µM (inactive) | 35.1 µM (inactive) | 23.7 µM (inactive) | 16.2 µM (inactive) | 18.7 µM (inactive) | 20.8 µM (inactive) | 18.2 µM (inactive) | 18.8 µM (inactive) | 18.3 µM (inactive) | 20.3 µM (inactive) | 20.8 µM (inactive) | 17.7 µM (inactive) | 20.2 µM (inactive) |
